In US9045505B2, “Nitric oxide donors” (University of Otago, priority 2006, dated 2015):

Legend:
[1] = test system: liver or heart mitochondria; experiment: Visualisation of S-nitrosated mitochondrial proteins by Cy3 maleimide labelling; assay type: biochemical, rat; conditions: 10 μM MitoSNAP or 500 μM diamide, 5 min
Protocol: FIG. 11 is a series of graphs showing S-nitrosation of mitochondrial thiols by MitoSNAP. (a) Time course of S-nitrosation of mitochondrial proteins by MitoSNAP. Liver mitochondria (1 mg protein) were incubated in 1 ml KCl buffer supplemented with rotenone and succinate in the presence of 5 μM MitoSNAP. At various times mitochondria were treated with 10 mM N-ethylmaleimide (NEM), isolated by centrifugation and the S-nitrosothiol content assessed. Data are of a typical experiment showing means±range of duplicate samples for each time point, each measured in duplicate. The experiment was repeated twice. (b) S-nitrosation of mitochondrial proteins by different concentrations of MitoSNAP and SNAP. Aliquots of liver mitochondria were incubated with the indicated concentrations of MitoSNAP or SNAP for […] in the presence or absence of 500 nM FCCP and then assessed for S-nitrosothiol content as in (a). […] Data are of a typical experiment showing means±range of duplicate samples for each time point, each measured in duplicate. […] After further incubation for 5 min at 37° C. in the dark, the medium was removed and the content of S-nitrosated proteins was measured. […] S-nitrosated thiols were then selectively tagged with Cy3 maleimide and protein (10 μg) was then separated on a 12.5% SDS PAGE gel which was stained with coomassie blue and scanned for Cy3 fluorescence. […]

liver mitochondria = experiment: Exposed protein thiols, glutathionylation and GSH/GSSG in liver mitochondria; assay type: biochemical, rat; conditions: mitochondria; MitoSNAP 5 μM
Protocol: Mitochondrial incubations were usually in KCl buffer (120 mM KCl, 10 mM HEPES, 1 mM EGTA, 100 μM N,N-bis(2-bis[carboxymethyl]aminoethyl) glycine (DTPA) and 10 μM neocuproine, pH 7.2) with 10 mM succinate and 4 μg/ml rotenone in the dark at 37° C., unless stated otherwise. An electrode selective for the TPP moiety of MitoSNAP and MitoNAP was made and used as described previously (Asin-Cayuela, J., Manas, A. R., James, A. M., Smith, R. A. & Murphy, M. P. Fine-tuning the hydrophobicity of a mitochondria-targeted antioxidant. FEBS Letts. 571, 9-16 (2004)). Respiration rates were measured in a Clark type O2 electrode (Rank Brothers, UK). To measure GSH and GSSG, mitochondria (1 mg protein/ml) were incubated with 0-10 μM MitoSNO1 or MitoNAP for 10 min, pelleted by centrifugation and the GSH and GSSG contents assessed by the recycling assay (Scarlett, J. L., Packer, M. A., Porteous, C. M. & Murphy, M. P. Alterations to glutathione and nicotinamide nucleotides during the mitochondrial permeability transition induced by peroxynitrite. Biochem. Pharmacol. 52, 1047-1055 (1996)). The measurement of exposed mitochondrial protein thiols is described below.
Small molecules were removed by centrifugation through MicroBioSpin Columns (cut off=6 kDa), the eluate was clarified by centrifugation (2 min at 10,000×g) and protein thiols measured in triplicate by mixing 10 μl sample or GSH standard with 160 μl of 200 μM dithionitrobenzoic acid (DTNB) in 80 mM NaPi, 1 mM EDTA, pH 8 in a 96 well plate and absorbance at 412 nm was measured after 30 min at room temperature and the thiol content determined from the GSH standard curve. The protein concentration was measured in parallel by the bicinchonininc assay using BSA as a standard.
The interaction of MitoSNAP with mitochondrial thiol proteins is likely to initiate a dynamic process that may lead to other protein thiol modifications, such as disulfide formation, glutathionylation, sulfenylation or sulfenylamide formation, in addition to persistent S-nitrosation. To assess these, the content of reactive, solvent-exposed thiols on native liver mitochondrial proteins was measured. […] This is consistent with the finding that the maximum extent of mitochondrial protein S-nitrosation by 5 μM MitoSNAP (˜500 pmol SNO/mg protein; FIG. 11) was only ˜1% of the total number of protein thiols available. A small amount of MitoSNAP binding to mitochondrial thiol proteins through the formation of mixed disulfides was detectable by immunoblotting.

SMILES: CN(C)C(=O)/N=N/C(=O)N(C)C [diamide, reference compound]
- Cy3 labelling of S-nitrosated proteins [1]: did not label proteins
- protein-glutathione mixed disulfides (glutathionylation) (liver mitochondria): extensive glutathionylation
